Measurements: patent publication US20260014129A1, “MITOCHONDRIAL PYRUVATE METABOLISM INHIBITORS FOR TREATING CHRONIC MYELOID LEUKEMIA” (The University Court of the University of Glasgow, priority 2022, published 2026)

Columns and labels:
[1] = tested on: CML CD34+ cells; experiment: Patient-derived xenograft of CML CD34+ cells in NRG-W41 mice, bone marrow flow cytometry; type: in vivo, human
Procedure: Treatment was given for 4 weeks. For treatment with asciminib (ABL001) plus MSDC-0160, twelve weeks following transplant, drug treatment was started with both asciminib (Fisher Scientific Cat #1642956) dosed at 10 mg/kg/day (5 mg/kg BID); oral gavage and MSDC-0160 (Apex Biotechnology: Cat #B3702) dosed at 30 mg/kg; oral gavage once daily. Treatment was given for 4 weeks. At the respective endpoints, bone marrow cells were collected. This was done by placing inverted cut leg bones into 0.5 mL Eppendorf tubes with holes at bottom. These in turn were placed within 1.5 mL Eppendorf tubes containing PBS, centrifuged (12,000 RCF, 20 seconds). Cells were stained (300 μl/test) with anti-mouse (APC-Cy7 BD Biosciences: Cat #557659, RRID: AB_396774, 1 μl), anti-human CD45 (FITC; BD Biosciences: Cat #555482, RRID: AB_395874, 10 μl), anti-human CD34 (APC; BD Biosciences: Cat #555824, RRID: AB_398614, 2 μl) and anti-human CD38 (PerCP; BioLegend: Cat #303520, RRID: AB_893313, 2 μl) antibodies for flow cytometry analysis as described above.

[2] = molecular target: T1, MPC (Homo sapiens, UniProt O95563+Q9Y5U8); conditions: variety of cell types (ref 27); cited from earlier work
T1 sequence (Q9Y5U8 1-109): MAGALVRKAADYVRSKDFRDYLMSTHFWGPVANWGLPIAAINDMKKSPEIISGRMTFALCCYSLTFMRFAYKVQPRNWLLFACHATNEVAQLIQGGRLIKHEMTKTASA
T1 sequence (O95563 1-127): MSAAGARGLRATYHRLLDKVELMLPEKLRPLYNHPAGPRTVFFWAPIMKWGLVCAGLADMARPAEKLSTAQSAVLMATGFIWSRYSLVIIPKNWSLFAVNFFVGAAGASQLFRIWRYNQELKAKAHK

[3] = Body weight of xenografted NRG-W41 mice during treatment; conditions: 4 weeks
Procedure: For in vivo engraftment, 1 million CML CD34^+ cells, were transplanted via tail vein into sublethally irradiated (2.5Gy) female NRG-W41 (NOD.Cg-Rag1^tm1MomKit^W-41JIl2rg^tm1Wjl)) mice aged 8-10 weeks. Mice were housed under conditions of alternating 12 hours light and 12 hours darkness, at 20-24° C., 45-65% humidity, with feeding (LBS biotech: SDS Cat #SDS801730) and water ad libitum.
For treatment with imatinib plus MSDC-0160, eight weeks following transplant, drug treatment was started with both imatinib (LC Laboratories, Cat #1-5508) dosed at 100 mg/kg/day (50 mg per kg body weight BID) oral gavage and MSDC-0160 (30 mg/kg; oral gavage once daily). Treatment was given for 4 weeks.

[4] = tested on: CML CD34+ cells; experiment: Mitochondrial respiratory capacity (FCCP-induced oxygen consumption rate); type: cell-based, human; conditions: imatinib-treated samples
[5] = tested on: KCL22 cell line; experiment: Imatinib sensitivity of PC knockout KCL22 cell line; type: cell-based, human; conditions: data not shown
[6] = tested on: CML CD34+ cells; experiment: Proliferation (cell doubling time) and apoptosis (Annexin V/7-AAD) of primary CML CD34+ cells; conditions: imatinib 2 μM
[7] = tested on: phospho-AMPK; experiment: Western blot of AMPK and phospho-AMPK in CD34+ CML cells; type: cell-based, human; conditions: imatinib-treated patient samples, 24 hours
Procedure: (§1) Cells were lysed in RIPA buffer containing mini-Complete protease inhibitor cocktail and phosphatase inhibitors (both Roche). Total protein concentration was quantified using a Pierce BCA kit (Thermo Fisher Scientific: 23227). Equal amounts of protein (5-7.5 μg) were heated at 95° C. for 5 min and separated (120V) in 4-12% gels (Novex) for SDS-PAGE. Proteins were transferred onto PDVF membranes (Thermo Fisher Scientific: 21882) then blocked in 2% BSA (in Tris-buffered saline, 0.01% Tween (TBS-T)) for one hour. Next, membranes were incubated overnight at 4° C. with the primary antibodies. The membranes were rinsed three times with TBS-T, then incubated with secondary HRP-linked antibodies (1:10,000) for 1 hour at room temperature. The SuperSignal West Femto Maxi detection system was used (Thermo Fisher Scientific: 34095) and imaging was carried out using a LI-COR Odyssey Fc gel-doc system.

[8] = tested on: K562 cells; experiment: Viability (Annexin V/7AAD) and CFC assays of vector control versus PC knockout K562 cells; type: cell-based, human; conditions: 72 hours; 600 nm imatinib or 100 nm omacetaxine
Procedure: (a) Western blot of PC and loading control (tubulin) from vector control or PC knockout K562 cells. (b) Proliferation of K562 cells from A. Shown is average and SEM from 3 independent experiments. (c) Fractional labelling from ^13C6 glucose into indicated metabolites of PC knockout cells are shown (n=3) after 24 hours. Plots were generated using Autoplotter, average and SD are plotted. Statistical analyses were conducted on the m+5 fraction. An ordinary one-way ANOVA was used with Dunnett's test used to correct for multiple comparisons. (d) Cells viability was measured using Annexin V and 7AAD. Cells were either left untreated (UT) or exposed for 72 hours to 600 nm imatinib or 100 nm omacetaxine (OMA). Shown is average and SEM from 4 independent experiments. An ordinary one-way ANOVA was used with Dunnett's test used to correct for multiple comparisons. (e) Colony Forming Cell (CFC) potential of control and […] cells. Cells were either left untreated (UT) or exposed for 72 hours to 600 nm imatinib. Shown is average and SEM from 4 independent experiments. An ordinary one-way ANOVA was used with Dunnett's test used to correct for multiple comparisons. […]

[9] = tested on: phospho-CRKL; experiment: Western blot of phospho-CRKL in CML patient samples; type: cell-based, human; conditions: imatinib, two patient samples
Procedure: as §1

[10] = tested on: CML CD34+ cells; experiment: Extracellular flux of spent medium by YSI bioanalyser; type: cell-based, human
Procedure: A YSI 2900 biochemistry analyser was used as per the manufacturer's instructions to quantify glucose, lactate, glutamine, and glutamate in the media. The concentration of each metabolite was normalised to cell number and the rate of uptake or secretion per hour was calculated relative to cell free medium. The exchange rate per 48 hours [secretion (+) or consumption (−)] for a specific metabolite (x) was obtained according to the following equation:

[11] = combination of imatinib and MSDC-0160, 4 weeks

CCc1ccc(C(=O)COc2ccc(CC3SC(=O)NC3=O)cc2)nc1 (stereo not drawn) [MSDC-0160]
percentage of human CML LSCs, MSDC-0160 on its own ([1]; MSDC-0160 30 mg/kg once daily, 4 weeks, 12 weeks engraftment): reduction in the percentage of human CML LSCs | percentage of human CML LSCs, combination with ABL-001 ([1]; MSDC-0160 30 mg/kg plus ABL-001 10 mg/kg/day, 4 weeks): reduction in the percentage of human CML LSCs | total numbers of CML CD45+CD34+CD38- cells (LSC) ([1]; combination of ABL-001 and MSDC-0160 30 mg/kg, 4 weeks): did not reduce the total numbers | reduction in percentage of human CD45+ leukocytes and total number of bone marrow CD45+ cells ([1]; combination of imatinib 50 mg/kg BID and MSDC-0160 30 mg/kg/day, 4 weeks): did not reach statistical significance | percentage and absolute number of human CML LSCs (CD34+CD38-) [1, 11]: marked reduction in both the percentage and absolute number | relative and total reduction of CD34+ cells versus vehicle or imatinib arms [1, 11]: did not reach statistical significance | inhibition of MPC activity [2]: specifically inhibit MPC activity | tolerability (body weight throughout the study), single agent arms ([3]; imatinib 50 mg/kg BID or MSDC-0160 30 mg/kg/day, oral gavage): well tolerated | tolerability (body weight throughout the study), combination arm ([3]; imatinib 50 mg/kg BID plus MSDC-0160 30 mg/kg/day): well tolerated

Cc1ccc(NC(=O)c2ccc(CN3CCN(C)CC3)cc2)cc1Nc1nccc(-c2cccnc2)n1 [imatinib]
mitochondrial respiratory capacity (FCCP-induced oxygen consumption rate) [4]: reduced | sensitivity to the drug after knockout of PC in KCL22 [5]: failed to increase sensitivity | cell proliferation (cell doubling time) ([6]; primary CML CD34+ cells in Plasmax, p-value=0.0659): inhibited cell proliferation | level of apoptosis ([6]; primary CML CD34+ cells, p-value=0.081): modest, sample-dependent increase in the level of apoptosis | AMPK and phospho-AMPK protein levels [7]: variable depending on patient sample | sensitisation of K562 to the drug by PC ablation, viability and CFC assays [8]: sensitised | phospho-CRKL protein level [9]: decreased | glucose consumption ([10]; imatinib-treated vs control primary CML CD34+ cells): consumed less glucose than control cells, when corrected for a decrease in proliferation this difference disappeared | glutamine consumption ([10]; imatinib-treated vs untreated primary CML CD34+ cells): decreased
